# Patent US20260374773A1, “MULTI-CYCLIC IRAK AND FLT3 INHIBITING COMPOUNDS AND USES THEREOF” (CHILDREN'S HOSPITAL MEDICAL CENTER, priority 2022, published 2026)
# Target: T1, FLT3 ITD (Homo sapiens, UniProt P36888, ITD)
# T1 construct: T7 phage/E. coli or HEK-293 expression
# T1 sequence (P36888 27-993): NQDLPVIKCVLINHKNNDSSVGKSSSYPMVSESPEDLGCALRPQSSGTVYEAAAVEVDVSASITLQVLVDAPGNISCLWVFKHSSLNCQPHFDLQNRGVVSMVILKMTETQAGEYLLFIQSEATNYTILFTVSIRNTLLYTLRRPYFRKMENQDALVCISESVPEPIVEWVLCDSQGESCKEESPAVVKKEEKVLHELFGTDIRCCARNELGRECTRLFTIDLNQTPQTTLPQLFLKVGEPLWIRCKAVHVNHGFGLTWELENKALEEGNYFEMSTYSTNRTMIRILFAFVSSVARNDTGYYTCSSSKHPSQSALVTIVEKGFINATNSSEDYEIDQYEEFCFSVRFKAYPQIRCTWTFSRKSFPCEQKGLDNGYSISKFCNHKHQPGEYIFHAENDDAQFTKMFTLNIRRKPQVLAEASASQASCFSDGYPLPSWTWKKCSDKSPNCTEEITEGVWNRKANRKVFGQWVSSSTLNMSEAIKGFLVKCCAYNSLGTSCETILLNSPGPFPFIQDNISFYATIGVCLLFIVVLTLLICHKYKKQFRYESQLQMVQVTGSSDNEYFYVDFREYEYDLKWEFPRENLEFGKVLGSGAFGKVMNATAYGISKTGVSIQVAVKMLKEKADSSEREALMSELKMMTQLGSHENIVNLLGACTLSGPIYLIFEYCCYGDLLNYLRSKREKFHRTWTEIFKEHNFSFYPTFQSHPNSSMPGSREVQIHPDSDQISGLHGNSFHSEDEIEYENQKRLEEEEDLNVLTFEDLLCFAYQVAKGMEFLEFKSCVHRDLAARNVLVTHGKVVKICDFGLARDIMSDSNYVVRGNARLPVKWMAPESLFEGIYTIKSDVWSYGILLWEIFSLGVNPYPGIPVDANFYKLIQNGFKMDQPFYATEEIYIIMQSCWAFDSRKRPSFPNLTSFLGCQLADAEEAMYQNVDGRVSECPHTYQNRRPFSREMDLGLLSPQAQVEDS
# Assay: DiscoverX KINOMEscan active site-directed competition binding, FLT3 ITD
# Conditions: Table 12; no ATP
# Source text: (§1) Kinase binding data were obtained for various exemplary compounds prepared according to Examples 1-8 using the DiscoverX KINOMEscan® active site-directed competition binding site-directed assay protocol described below. […] As a result, the data report thermodynamic interaction affinities (Kd values), rather than IC50 values that are dependent on ATP concentrations. The assay uses a DNA-tagged version of the protein kinase, and an immobilized ligand bound to a solid support. Compounds that directly or indirectly prevent kinase binding to the immobilized ligand reduce the amount of kinase captured on the solid support, which is detected using an ultra-sensitive qPCR method. Affinity constants reported from the assay have been reported to be independent of the immobilized ligand used that is coupled to the solid support (See supplemental information in Fabian, M. A. et. al., (2005) Nat. Biotechnol. 23, 329-336; Wodicka, L. M. et. al., (2010) Chem. Biol. 17, 1241-1249.)
# Kinase-tagged T7 phage strains were prepared in an E. coli host derived from the BL21 strain. E. coli were grown to log-phase and infected with T7 phage and incubated with shaking at 32 °C until lysis. The lysates were centrifuged and filtered to remove cell debris. The remaining kinases were produced in HEK-293 cells and subsequently tagged with DNA for qPCR detection. Streptavidin-coated magnetic beads were treated with biotinylated small molecule ligands for 30 minutes at room temperature to generate affinity resins for kinase assays. The liganded beads were blocked with excess biotin and washed with blocking buffer (SeaBlock (Pierce), 1% BSA, 0.05% Tween 20, 1 mM DTT) to remove unbound ligand and to reduce non-specific binding. […] Test compounds were prepared as 111x stocks in 100% DMSO. Kds were determined using an 11-point 3-fold compound dilution series with three DMSO control points. All compounds for Kd measurements are distributed by acoustic transfer (non-contact dispensing) in 100% DMSO. The compounds were then diluted directly into the assays such that the final concentration of DMSO was 0.9%. All reactions were performed in polypropylene 384-well plates. Each was a final volume of 0.02 mL. The assay plates were incubated at room temperature with shaking for 1 hour and the affinity beads were washed with wash buffer (1×PBS, 0.05% Tween 20). The beads were then re-suspended in elution buffer (1×PBS, 0.05% Tween 20, 0.5 μM nonbiotinylated affinity ligand) and incubated at room temperature with shaking for 30 minutes. The kinase concentration in the eluates was measured by qPCR. Binding constants (Kds) were calculated with a standard dose-response curve using the Hill equation. The Hill Slope was set to −1. Curves were fitted using a non-linear least square fit with the Levenberg-Marquardt algorithm.
# as §1, with “9-12” for “1-8”
# Kinase-tagged T7 phage strains were prepared in an E. coli host derived from the BL21 strain. […]
row,Kd [nM],SMILES
1,0.21,"COc1cn2ncc(-c3nc(N[C@H]4CNCC[C@@H]4F)c(F)cc3F)c2nc1C(C)(C)O [Compound 13, 2-(3-(3,5-difluoro-6-(((3S,4S)-4-fluoropiperidin-3-yl)amino)pyridin-2-yl)-6-methoxypyrazolo[1,5-a]pyrimidin-5-yl)propan-2-ol]"
2,0.28,"COc1cn2ncc(-c3nc(N[C@H]4CNCC[C@@H]4F)c(C#N)cc3F)c2nc1C(C)(C)O [Compound 10, 5-fluoro-2-(((3S,4S)-4-fluoropiperidin-3-yl)amino)-6-(5-(2-hydroxypropan-2-yl)-6-methoxypyrazolo[1,5-a]pyrimidin-3-yl)nicotinonitrile]"
3,0.41,"COc1cn2ncc(-c3nc(N[C@H]4CNCC[C@@H]4F)c(C#N)cc3F)c2nc1C1CC1 [Compound 7, 6-(5-cyclopropyl-6-methoxypyrazolo[1,5-a]pyrimidin-3-yl)-5-fluoro-2-(((3S,4S)-4-fluoropiperidin-3-yl)amino)nicotinonitrile]"

# Same assay, conditions: Table 18; no ATP
row,Kd [nM],SMILES
1,< 0.17,"COc1cn2ncc(-c3nc(N[C@@H]4CCCNC4)ncc3F)c2nc1C1CC1 [Compound 14a, (R)-4-(5-cyclopropyl-6-methoxypyrazolo[1,5-a]pyrimidin-3-yl)-5-fluoro-N-(piperidin-3-yl)pyrimidin-2-amine]"
2,0.25,"COc1cn2ncc(-c3nc(N[C@H]4CNCC[C@@H]4F)ncc3F)c2nc1C1CC1 [Compound 15a, 4-(5-cyclopropyl-6-methoxypyrazolo[1,5-a]pyrimidin-3-yl)-5-fluoro-N-((3S,4S)-4-fluoropiperidin-3-yl)pyrimidin-2-amine]"
3,0.39,"COc1cn2ncc(-c3cncc(N[C@H]4CNCC[C@@H]4F)n3)c2nc1C1CC1 [Compound 12a, 6-(5-cyclopropyl-6-methoxypyrazolo[1,5-a]pyrimidin-3-yl)-N-((3S,4S)-4-fluoropiperidin-3-yl)pyrazin-2-amine]"
4,0.23,"COc1cn2ncc(-c3nc(N[C@H]4CNCC[C@@H]4F)ncc3F)c2nc1C(C)(C)O [Compound 6a, 2-(3-(5-fluoro-2-(((3S,4S)-4-fluoropiperidin-3-yl)amino)pyrimidin-4-yl)-6-methoxypyrazolo[1,5-a]pyrimidin-5-yl)propan-2-ol]"
5,0.53,"COc1cn2ncc(-c3ccnc(N[C@H]4CNCC[C@@H]4F)n3)c2nc1C1CC1 [Compound 7a, 4-(5-cyclopropyl-6-methoxypyrazolo[1,5-a]pyrimidin-3-yl)-N-((3S,4S)-4-fluoropiperidin-3-yl)pyrimidin-2-amine]"
